Source: PMC10850954, “HDAC6/aggresome processing pathway importance for inflammasome formation is context-dependent” (The Journal of Biological Chemistry, 2024)

Assays:
U937 cells = test: CTG cell viability assay; format: cell-based, human; conditions: U937, broad concentration range, 70 h
Experimental: (§1) U937, Jurkat, and HEK293T cells were plated with a density of 10^5 cells/ml, with 50 μl/well in a white 384 well plate (Corning #3570). Two hours after plating, XY-07-035 was dispensed to each well using HPd300e and incubated at 37 °C for 70 h. CellTiter-Glo (CTG) Luminescent Cell Viability Assay (Promega #G7572) was then used to measure cell viability. Aliquoted frozen CTG reagent and cell plates were warmed to room temperature prior to loading. After the plates were cooled to room temperature, the CTG reagent was loaded 15 μl/well with an electronic multichannel pipette. […] The luminescence signal was read over ten cycles for each data point on a PHERAstar FS microplate reader (BMG Labtech). The Relative abundance was calculated as the sum of the averages of duplicate individual 12-point dose-response data points.
(§2) Supplementary file mmc1.pdf: Supporting Figure S1 BMDM cells were primed by LPS (1 μg/ml) for 4 hrs and then challenged with 20 μM nigericin. 50 μl supernatant was collected every 15 min (up to 90 min) and mIL-1β level was determined by HTRF assay. […] DARPin F10 was detected by anti-HA antibody. […] Cells were treated with different concentrations of the degrader, and cell viability determined by CTG assay was normalized to the non-treated group. […] Supporting Figure S4: Cell viability was measured by resazurin assay, and fluorescence intensity was a representative of the viability.

HDAC6 = target: T1, HDAC6 (Homo sapiens, UniProt Q9UBN7); design: method as in PMID 34314730; conditions: cited from earlier work
T1 sequence (Q9UBN7 1-1215): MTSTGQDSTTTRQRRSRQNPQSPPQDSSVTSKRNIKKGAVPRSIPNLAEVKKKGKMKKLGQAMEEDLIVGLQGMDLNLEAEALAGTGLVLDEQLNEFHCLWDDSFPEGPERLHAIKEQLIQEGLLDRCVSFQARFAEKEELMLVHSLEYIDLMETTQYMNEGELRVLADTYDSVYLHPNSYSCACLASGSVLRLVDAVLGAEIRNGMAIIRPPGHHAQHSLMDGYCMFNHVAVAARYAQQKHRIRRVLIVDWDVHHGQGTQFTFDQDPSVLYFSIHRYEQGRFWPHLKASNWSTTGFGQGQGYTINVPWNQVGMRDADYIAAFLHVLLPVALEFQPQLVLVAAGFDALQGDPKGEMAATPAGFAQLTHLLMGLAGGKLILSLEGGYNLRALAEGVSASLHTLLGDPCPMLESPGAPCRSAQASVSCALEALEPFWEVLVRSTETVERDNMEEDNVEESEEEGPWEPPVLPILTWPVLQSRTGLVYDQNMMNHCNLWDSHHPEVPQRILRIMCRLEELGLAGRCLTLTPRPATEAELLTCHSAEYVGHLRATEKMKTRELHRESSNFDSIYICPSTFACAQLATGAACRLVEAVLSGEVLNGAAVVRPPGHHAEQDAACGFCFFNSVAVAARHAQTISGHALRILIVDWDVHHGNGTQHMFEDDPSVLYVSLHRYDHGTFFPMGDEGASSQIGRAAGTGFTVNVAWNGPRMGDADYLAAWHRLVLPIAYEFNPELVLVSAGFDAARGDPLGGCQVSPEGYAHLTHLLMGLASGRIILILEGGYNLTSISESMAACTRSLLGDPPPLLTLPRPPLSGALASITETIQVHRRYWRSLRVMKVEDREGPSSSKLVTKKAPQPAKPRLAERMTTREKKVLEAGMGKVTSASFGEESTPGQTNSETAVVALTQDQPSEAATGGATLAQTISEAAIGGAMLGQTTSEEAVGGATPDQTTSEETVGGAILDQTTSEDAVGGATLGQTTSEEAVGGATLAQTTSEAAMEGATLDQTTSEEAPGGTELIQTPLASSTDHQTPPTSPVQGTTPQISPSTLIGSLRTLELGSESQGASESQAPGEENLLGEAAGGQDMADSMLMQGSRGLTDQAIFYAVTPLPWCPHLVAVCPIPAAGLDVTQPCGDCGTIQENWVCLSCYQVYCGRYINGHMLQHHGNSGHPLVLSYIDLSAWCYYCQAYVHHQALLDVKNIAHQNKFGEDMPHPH

Jurkat cells = test: CTG cell viability assay; format: cell-based; conditions: broad concentration range, 70 h
Experimental: as §1, §2

HEK293T cells = test: CTG cell viability assay; format: cell-based; conditions: broad concentration range, 70 h
Experimental: as §1, §2

In the case of `CN(C(=O)CCCNc1cccc2c1C(=O)N(C1CCC(=O)NC1=O)C2=O)c1ccc(NC(=O)CCCCCCC(=O)NO)cc1` (stereo not shown) [XY-07-35], the cellular toxicity (U937 cells) is listed as “does not show cellular toxicity”, the “degradation profile (specificity)” value (HDAC6) is listed as “highly specific for HDAC6” and the cellular toxicity (Jurkat cells) is listed as “does not show cellular toxicity”. The cellular toxicity (HEK293T cells) was “does not show cellular toxicity”.
